Data taken from ChEMBL document CHEMBL4138123, “Design, synthesis and biological evaluation of novel pyrazolochalcones as potential modulators of PI3K/Akt/mTOR pathway and inducers of apoptosis in breast cancer cells” (Eur J Med Chem, 2017).

What was measured:
Type in all cases: functional
MOLT-4 [1] = assay: Cytotoxicity against human MOLT4 cells assessed as growth inhibition after 48 hrs by sulforhodamine B assay; settings: MOLT-4, 48 h; for CC50: read-out: LC50 (the source's name)
NCI-H322M = assay: Cytotoxicity against human NCI-H322M cells assessed as growth inhibition after 48 hrs by sulforhodamine B assay; settings: for CC50: read-out: LC50 (the source's name)
COLO 205 = assay: Cytotoxicity against human COLO205 cells assessed as growth inhibition after 48 hrs by sulforhodamine B assay; settings: COLO 205, 48 h
SW-620 = assay: Cytotoxicity against human SW620 cells assessed as growth inhibition after 48 hrs by sulforhodamine B assay; settings: SW-620, 48 h
UACC-257 = assay: Cytotoxicity against human UACC257 cells assessed as growth inhibition after 48 hrs by sulforhodamine B assay; settings: UACC-257, 48 h
RXF 393 = assay: Cytotoxicity against human RXF393 cells assessed as growth inhibition after 48 hrs by sulforhodamine B assay; settings: RXF 393, 48 h
DU-145 = assay: Cytotoxicity against human DU145 cells assessed as growth inhibition after 48 hrs by sulforhodamine B assay; settings: DU-145, 48 h; for CC50: read-out: LC50 (the source's name)
HL-60(TB) = assay: Cytotoxicity against human HL-60(TB) cells assessed as cell growth at 0.01 uM after 48 hrs by sulforhodamine B assay relative to control; settings: HL-60, 48 h, read-out: Activity
PC-3 = assay: Cytotoxicity against human PC3 cells assessed as cell growth at 0.01 uM after 48 hrs by sulforhodamine B assay relative to control; settings: PC-3, 48 h, read-out: Activity
MDA-MB-231 = assay: Cytotoxicity against human MDA-MB-231 cells assessed as cell growth at 0.01 uM after 48 hrs by sulforhodamine B assay relative to control; settings: MDA-MB-231, 48 h, read-out: Activity
RPMI-8226 = assay: Cytotoxicity against human RPMI8226 cells assessed as cell growth at 0.1 uM after 48 hrs by sulforhodamine B assay relative to control; settings: RPMI-8226, 48 h, read-out: Activity
HOP-62 = assay: Cytotoxicity against human HOP62 cells assessed as cell growth at 0.1 uM after 48 hrs by sulforhodamine B assay relative to control; settings: HOP-62, 48 h, read-out: Activity
HCT-116 = assay: Cytotoxicity against human HCT116 cells assessed as cell growth at 0.1 uM after 48 hrs by sulforhodamine B assay relative to control; settings: HCT-116, 48 h, read-out: Activity
U-251 [2] = assay: Cytotoxicity against human U251 cells assessed as cell growth at 0.1 uM after 48 hrs by sulforhodamine B assay relative to control; settings: U-251, 48 h, read-out: Activity
SK-MEL-5 = assay: Cytotoxicity against human SK-MEL-5 cells assessed as cell growth at 0.1 uM after 48 hrs by sulforhodamine B assay relative to control; settings: SK-MEL-5, 48 h, read-out: Activity
IGROV-1 [3] = assay: Cytotoxicity against human IGROV1 cells assessed as cell growth at 0.1 uM after 48 hrs by sulforhodamine B assay relative to control; settings: IGROV-1, 48 h, read-out: Activity
OVCAR-4 = assay: Cytotoxicity against human OVCAR4 cells assessed as cell growth at 0.1 uM after 48 hrs by sulforhodamine B assay relative to control; settings: OVCAR-4, 48 h, read-out: Activity
BT-549 [4] = assay: Cytotoxicity against human BT549 cells assessed as cell growth at 0.1 uM after 48 hrs by sulforhodamine B assay relative to control; settings: BT-549, 48 h, read-out: Activity
SF-268 = assay: Cytotoxicity against human SF268 cells assessed as cell growth at 1 uM after 48 hrs by sulforhodamine B assay relative to control; settings: SF-268, 48 h, read-out: Activity
U-251 [5] = assay: Cytotoxicity against human U251 cells assessed as cell growth at 1 uM after 48 hrs by sulforhodamine B assay relative to control; settings: U-251, 48 h, read-out: Activity
OVCAR-5 = assay: Cytotoxicity against human OVCAR5 cells assessed as cell growth at 1 uM after 48 hrs by sulforhodamine B assay relative to control; settings: OVCAR-5, 48 h, read-out: Activity
ACHN = assay: Cytotoxicity against human ACHN cells assessed as cell growth at 1 uM after 48 hrs by sulforhodamine B assay relative to control; settings: read-out: Activity
TK-10 = assay: Cytotoxicity against human TK10 cells assessed as cell growth at 1 uM after 48 hrs by sulforhodamine B assay relative to control; settings: TK-10, 48 h, read-out: Activity
MOLT-4 [6] = assay: Cytotoxicity against human MOLT4 cells assessed as cell growth at 10 uM after 48 hrs by sulforhodamine B assay relative to control; settings: MOLT-4, 48 h, read-out: Activity
NCI-H460 = assay: Cytotoxicity against human NCI-H460 cells assessed as cell growth at 10 uM after 48 hrs by sulforhodamine B assay relative to control; settings: NCI-H460, 48 h, read-out: Activity
HCT-15 = assay: Cytotoxicity against human HCT15 cells assessed as cell growth at 10 uM after 48 hrs by sulforhodamine B assay relative to control; settings: HCT-15, 48 h, read-out: Activity
NCI/ADR-RES = assay: Cytotoxicity against human NCI/ADR-RES cells assessed as cell growth at 10 uM after 48 hrs by sulforhodamine B assay relative to control; settings: read-out: Activity
SK-OV-3 = assay: Cytotoxicity against human SKOV3 cells assessed as cell growth at 10 uM after 48 hrs by sulforhodamine B assay relative to control; settings: SK-OV-3, 48 h, read-out: Activity
Hs-578T = assay: Cytotoxicity against human Hs 578T cells assessed as cell growth at 10 uM after 48 hrs by sulforhodamine B assay relative to control; settings: read-out: Activity
CCRF-CEM = assay: Cytotoxicity against human CCRF-CEM cells assessed as cell growth at 100 uM after 48 hrs by sulforhodamine B assay relative to control; settings: read-out: Activity
MDA-MB-435 = assay: Cytotoxicity against human MDA-MB-435 cells assessed as cell growth at 100 uM after 48 hrs by sulforhodamine B assay relative to control; settings: MDA-MB-435, 48 h, read-out: Activity
IGROV-1 [7] = assay: Cytotoxicity against human IGROV1 cells assessed as cell growth at 100 uM after 48 hrs by sulforhodamine B assay relative to control; settings: IGROV-1, 48 h, read-out: Activity
BT-549 [8] = assay: Cytotoxicity against human BT549 cells assessed as cell growth at 100 uM after 48 hrs by sulforhodamine B assay relative to control; settings: BT-549, 48 h, read-out: Activity

Structure (SMILES): COc1cc(C(=O)/C=C/c2cc(-c3ccc4c(c3)OCO4)n[nH]2)cc(OC)c1OC
- GI50 (MOLT-4 [1]): 2.71 µM
- TGI (MOLT-4 [1]): 8.36 µM
- CC50 (MOLT-4 [1]): > 100 µM
- GI50 (NCI-H322M): 2.09 µM
- TGI (NCI-H322M): 6.25 µM
- CC50 (NCI-H322M): 24.3 µM
- GI50 (COLO 205): 2.08 µM
- LC50 (COLO 205): 12.6 µM
- TGI (COLO 205): 4.66 µM
- GI50 (SW-620): 1.62 µM
- LC50 (lethal concentration, 50% net cell kill) (SW-620): 8.9 µM
- TGI (SW-620): 3.8 µM
- GI50 (UACC-257): 2.95 µM
- LC50 (UACC-257): 32 µM
- TGI (UACC-257): 9.46 µM
- GI50 (RXF 393): 1.31 µM
- LC50 (concentration killing 50% of cells) (RXF 393): 6.59 µM
- TGI (RXF 393): 2.94 µM
- GI50 (DU-145): 2.92 µM
- TGI (DU-145): 9.16 µM
- CC50 (DU-145): 31.4 µM
- growth at 0.01 µM (HL-60(TB)): 99%
- growth at 0.01 µM (PC-3): 97%
- growth at 0.01 µM (MDA-MB-231): 100%
- growth at 0.1 µM (RPMI-8226): 93%
- growth at 0.1 µM (HOP-62): 95%
- growth at 0.1 µM (HCT-116): 100%
- growth at 0.1 µM (U-251 [2]): 96%
- growth at 0.1 µM (SK-MEL-5): 95%
- growth at 0.1 µM (IGROV-1 [3]): 87%
- growth at 0.1 µM (OVCAR-4): 94%
- growth at 0.1 µM (BT-549 [4]): 97%
- growth at 1 µM (SF-268): 89%
- growth at 1 µM (U-251 [5]): 63%
- growth at 1 µM (OVCAR-5): 87%
- growth at 1 µM (ACHN): 99%
- growth at 1 µM (TK-10): 109%
- growth at 10 µM (MOLT-4 [6]): -8%
- growth at 10 µM (NCI-H460): -67%
- growth at 10 µM (HCT-15): -16%
- growth at 10 µM (NCI/ADR-RES): 2%
- growth at 10 µM (SK-OV-3): 19%
- growth at 10 µM (Hs-578T): 10%
- growth at 100 µM (CCRF-CEM): -20%
- growth at 100 µM (MDA-MB-435): -88%
- growth at 100 µM (IGROV-1 [7]): -90%
- growth at 100 µM (BT-549 [8]): -77%

Structure (SMILES): COc1ccc(-c2cc(/C=C/C(=O)c3ccc(OC)c(OC)c3)[nH]n2)cc1
- GI50 (MOLT-4 [1]): 2.67 µM
- TGI (MOLT-4 [1]): 8 µM
- CC50 (MOLT-4 [1]): > 100 µM
- GI50 (NCI-H322M): 1.62 µM
- TGI (NCI-H322M): 4.92 µM
- CC50 (NCI-H322M): 18.7 µM
- GI50 (COLO 205): 1.76 µM
- LC50 (COLO 205): 6.16 µM
- TGI (COLO 205): 3.3 µM
- GI50 (SW-620): 1.35 µM
- LC50 (lethal concentration, 50% net cell kill) (SW-620): 9.54 µM
- TGI (SW-620): 3.59 µM
- GI50 (UACC-257): 1.73 µM
- LC50 (UACC-257): 7.72 µM
- TGI (UACC-257): 3.65 µM
- GI50 (RXF 393): 1.39 µM
- LC50 (concentration killing 50% of cells) (RXF 393): 6.2 µM
- TGI (RXF 393): 2.94 µM
- GI50 (DU-145): 1.4 µM
- TGI (DU-145): 2.81 µM
- CC50 (DU-145): 5.64 µM
- growth at 0.01 µM (HL-60(TB)): 102%
- growth at 0.01 µM (PC-3): 95%
- growth at 0.01 µM (MDA-MB-231): 98%
- growth at 0.1 µM (RPMI-8226): 93%
- growth at 0.1 µM (HOP-62): 97%
- growth at 0.1 µM (HCT-116): 105%
- growth at 0.1 µM (U-251 [2]): 84%
- growth at 0.1 µM (SK-MEL-5): 93%
- growth at 0.1 µM (IGROV-1 [3]): 91%
- growth at 0.1 µM (OVCAR-4): 77%
- growth at 0.1 µM (BT-549 [4]): 105%
- growth at 1 µM (SF-268): 86%
- growth at 1 µM (U-251 [5]): 57%
- growth at 1 µM (OVCAR-5): 77%
- growth at 1 µM (ACHN): 82%
- growth at 1 µM (TK-10): 103%
- growth at 10 µM (MOLT-4 [6]): -10%
- growth at 10 µM (NCI-H460): -43%
- growth at 10 µM (HCT-15): -53%
- growth at 10 µM (NCI/ADR-RES): 15%
- growth at 10 µM (SK-OV-3): 29%
- growth at 10 µM (Hs-578T): 23%
- growth at 100 µM (CCRF-CEM): -47%
- growth at 100 µM (MDA-MB-435): -91%
- growth at 100 µM (IGROV-1 [7]): -84%
- growth at 100 µM (BT-549 [8]): -99%
